Experimental data from patent USRE47475E1, “Selective agents for pain suppression” (WiSys Technology Foundation, Inc., priority 2002, dated 2019).
Like-named read-outs stand apart in the source and are kept apart here.

How the values were obtained:
[1] = test system: locomotor activity of mice; assay: spontaneous locomotor activity (activity cage); format: in vivo; settings: i.p.
Method: Locomotor activity: Spontaneous locomotor activity was tested using a commercially available microprocessor equipped activity cage (actiframe, Gerb Elektronik). Mice were placed in the activity cage 15 min before testing. Locomotor activity was measured for 1 h after intraperitoneal administration of vehicle, gabapentin or HZ166 during the early light phase of the day-night cycle.

[2] = test system: neuropathic pain after CCI of the sciatic nerve; assay: chronic constriction injury (CCI) model, mechanical sensitization (von Frey filaments); format: in vivo, mice
Method: In addition, the pro- or antinociceptive effects of the compounds of the present invention are analyzed in the chronic constriction injury (CCI) model. The GABAA receptor subunit selective test compounds of the present invention are analysed in the CCI model in 7-8-week-old C57BL/6 mice. See Bennett, G. J. & Xie, Y. K. A peripheral mononeuropathy in rat that produces disorders of pain sensation like those seen in man. […] Seven to eight week old mice are anesthetized with isofluran. Unilateral constriction injury of the left sciatic nerve just proximal to the trifurcation is performed with three loose ligatures. In sham-operated animals the sciatic nerve is exposed and the connective tissue is freed, but no ligatures are applied. […] Heat hyperalgesia, cold allodynia and mechanical sensitization are assessed 7-9 days after surgery. Mechanical sensitivity is assessed with electronic von Frey filaments (IITC).
Pain studies—Neuropathic pain: HZ166 and gabapentin were analyzed in the chronic constriction injury (CCI) model. Unilateral constriction injury of the left sciatic nerve just proximal to the trifurcation was performed as described previously (Bennett and Xie, 1988). Anesthesia was induced and maintained by 2% isoflurane, combined with oxygen (30%). The sciatic nerve was exposed at the mid-thigh level proximal to the sciatic trifurcation by blunt dissection through the biceps femoris muscle. […] of nerve were freed of adhering tissue and three chromic gut ligatures (4/0) (Ethicon) were loosely put around the nerve with about 1 mm spacing. The ligatures were tied until they elicited a brief twitch in the hindlimb. The surgical wound was closed in layers. Heat hyperalgesia and mechanical sensitization were assessed 7-16 days after surgery.
Pain Studies—Mechanical sensitization: Mechanical sensitivity was assessed with dynamic von Frey filaments (IITC, Woodland Hills, Calif.). 4-5 measurements were made for each time point and animal and averaged. Measurements of paw withdrawal thresholds of the injured paw and of the contralateral paw were made alternately.
Statistical Analysis: For all different doses and vehicle, baseline paw withdrawal thresholds/latencies on day 7 after nerve ligation or on day 2 after zymosan A injection were subtracted from all later withdrawal thresholds and the area under the curve (AUC) was calculated. Drug effects were expressed as percent maximum possible effect (MPE) calculated from comparisons of paw withdrawal latencies or thresholds obtained prior to surgery or inflammation and before and after drug treatment. […] Unless otherwise indicated, statistical comparisons were made with one-way analysis of variance (ANOVA) followed by Scheffe's post hoc test. P values<0.05 were considered significant.

[3] = test system: motor coordination of mice; assay: rotarod test (motor impairment); format: in vivo; settings: HZ166 16 and 48 mg/kg, gabapentin 10 and 30 mg/kg, i.p., 60 min after treatment
Method: Motor impairment: A possible impairment of motor function was analyzed in the rotarod test. Mice were trained on the rotarod (diameter 3 cm, 2 rpm) for 2 days. Animals capable of remaining on the rotarod in the absence of treatment for at least 2 min were selected for drug testing. On the test day, the latency to fall off the rod was recorded before and 60 minutes after treatment with vehicle, HZ166 or gabapentin.

neuropathic pain = settings: Knabl et al., 2008, cited from earlier work; for analgesic effect after repeated administration (tolerance): once per day for nine days
[4] = biological target: T1, GABAA/α3 (α3β3γ2 GABAA receptor) (Homo sapiens, UniProt P18507+P34903); assay: competitive binding assay with [3H]flunitrazepam
T1 construct: expressed in transfected cells
Method: (§1) Membranes were harvested with a Brandel cell harvester followed by three ice-cold washes onto polyethyleneimine-pretreated (0.3%) Whatman GF/C filters. Filters were dried overnight and then soaked in Ecoscint, a liquid scintillation cocktail (National Diagnostics; Atlanta, Ga.). Bound radioactivity was quantified by liquid scintillation counting. Membrane protein concentrations were determined using an assay kit from Bio-Rad (Hercules, Calif.) with bovine serum albumin as the standard.
as §1, with “The GABAA subunit selectivity of several compounds prepared as described above were determined using competitive binding assays. […] Membranes” for “Membranes”

[5] = biological target: T2, GABAA/α6 (α6β3γ2 GABAA receptor) (Homo sapiens, UniProt P18507+Q16445); assay: competitive binding assay with [3H]flunitrazepam
T2 construct: expressed in transfected cells
Method: as §1
as §1, with “The GABAA subunit selectivity of several compounds prepared as described above were determined using competitive binding assays. […] Membranes” for “Membranes”

[6] = biological target: T3, GABAA/α5 (α5β3γ2 GABAA receptor) (Homo sapiens, UniProt P18507+P31644); assay: competitive binding assay with [3H]flunitrazepam
T3 construct: expressed in transfected cells
Method: as §1
as §1, with “The GABAA subunit selectivity of several compounds prepared as described above were determined using competitive binding assays. […] Membranes” for “Membranes”

[7] = biological target: T4, GABAA/α1 (α1β3γ2 GABAA receptor) (Homo sapiens, UniProt P14867+P18507); assay: competitive binding assay with [3H]flunitrazepam
T4 construct: expressed in transfected cells
Method: as §1
as §1, with “The GABAA subunit selectivity of several compounds prepared as described above were determined using competitive binding assays. […] Membranes” for “Membranes”

[8] = biological target: T5, GABAA/α2 (α2β3γ2 GABAA receptor) (Homo sapiens, UniProt P18507+P47869); assay: competitive binding assay with [3H]flunitrazepam
T5 construct: expressed in transfected cells
Method: as §1
as §1, with “The GABAA subunit selectivity of several compounds prepared as described above were determined using competitive binding assays. […] Membranes” for “Membranes”

[9] = test system: Formalin Pain (mouse, i.p.); assay: T22 formalin test (chemically induced pain); format: in vivo
Method: This elicits a distinct bi-phasic behavioral profile in response to the formalin injection characterized by licking of the affected paw, and the number of licks is measured as a proxy for perceived pain. The first (acute) phase is thought to correspond to the direct stimulation of peripheral fibers while the second (inflammatory) phase is caused by the release of inflammatory mediators from the damaged tissue and nerve endings. Thus, this model is ideally suited for efficacy of an investigational AED against the acute and chronic hyper-responsive neuronal discharges following activation of peripheral nerve fibers.
The results of the formalin test are given both as raw data (“Response”) and in an aggregate, analyzed form (“Analysis”). In the Response section, each Trial involves sixteen animals, eight controls given an i.p. injection of vehicle and eight given the compound at a specified dose. Thus, for multiple doses of the compound, there will also be multiple control groups. The data recorded for each animal is the amount of time(s) spent licking the affected hind paw in a two minute period. These two minute periods occur at five minute intervals and continue for 45 minutes. […] From this plot, we can then determine the area under the curve (AUC) for each animal during both the acute and inflammatory stages. The AUC for each phase is shown in the analysis section of the data sheet for both control and drug-treated animals The AUC for each drug-treated animal is compared to the average result from the control group, yielding an average percent of control (reported with the SEM and p value).

[10] = test system: Sciatic Ligation neuropathic pain; assay: T23 partial ligation of the sciatic nerve (mechanical allodynia); format: in vivo, rats
Method: Neuropathic pain. The pro- or antinociceptive effects of the compounds of the present invention are analyzed in two manners. […] Sterile technique will be used throughout the surgery. The upper thigh will be shaved and wiped off with ethanol and betadine. A small incision will then be made in the skin. The underlying muscle of the upper thigh will be separated and the sciatic nerve exposed. The nerve is separated from the surrounding connective tissue and slightly elevated by a pair of fine, curved forceps. Approximately ⅓ to ½ of the nerve is tied off by passing a needle (7.0) and nylon suture through the nerve. The muscle and skin incision are closed off separately with 5.0 suture and the animals kept warm until they have recovered from the anesthesia. This procedure is routinely done on the right side (ipsilateral) while a sham surgery is performed on the left hind leg (contralateral). The latter involves a similar procedure with the exception that the sciatic nerve on this side is only exposed. The rats will be closely monitored daily for the development of infection or untoward effects of the surgery in which case the animals will be immediately euthanized
After an appropriate time for recovery (7 days) the animals will be tested for the development of mechanical allodynia (abnormal response to a non-noxious stimulus). The animals are each put in a bottomless plexiglass box placed on a wire mesh (¼″) platform. After 30-60 minutes in which to acclimate, a baseline mechanical sensitivity is determined. This procedure is done by applying a series of calibrated Von Frey fibres perpendicularly to the plantar surface of each hind paw and holding it there for about 6 secs with enough force to slightly bend the fibre. After a positive response (withdrawal of the foot) is noted a weaker fibre is applied. This is repeated until a 50% threshold for withdrawal can be determined
The allodynic threshold is then redetermined after intraperitoneal administration of an investigational AED. Testing will be conducted at the time-to-peak effect of the AED as determined in the acute seizure model.

rhesus monkeys = assay: conflict model of anxiolytic activity which also measures sedation; format: in vivo; settings: intravenously in propylene glycol/water
Method: The data in FIGS. 21A-21F reflect the ability of the compounds or drugs to exert an anxioyic effect in rhesus monkeys (J. Rowlett, J. M. Cook et al., unpublished results) when given intravenously in propylene glycol/water solution. This is the conflict model of anxiolytic activity which also measures sedation. […] In FIG. 21B, SH-053-2′F (JY-XHE-053) is anxiolytic at a dose of greater than 0.13 mg/kg, but exerts only some slight sedation at doses greater than 1.2 mg/kg (responses decrease). In FIG. 21C it is clear the S-enantiomer of SH-053-2′F—S—CH3 is anxiolytic with no sedation up to 10-18 mg/kg, which is the highest dose tested.

[11] = test system: GABAA receptors of superficial dorsal horn neurons; assay: whole-cell patch-clamp of GABA-induced currents in spinal cord slices; format: cell-based, mice; settings: diazepam 1 μM
Method: Electrophysiology of Spinal Cord Slices. […] GABAergic membrane currents are recorded from superficial dorsal horn neurons (laminae I and II) as described previously. […] GABA-induced currents are recorded from capsaicin sensitive DRG neurons 3-30 h after plating. Whole-cell patch-clamp recordings are performed from neurons identified under visual control using the infrared gradient contrast technique coupled to a video microscopy system. In both preparations, GABA (1 mM) is applied to the some of the recorded neuron via a glass pipette by short (10 ms) electronically controlled puffer applications at a frequency of 0.07 Hz.
Spinal cord GABAA receptors: Whole-cell patch-clamp electrophysiology recordings are performed in spinal cord slices of GABAA receptor mutant mice and of corresponding wt mice. […] GABA-induced membrane currents are evoked by external application of GABA (3 mM) to neurons located in the superficial layers (lamina I and II) of the spinal cord dorsal horn.

[12] = Binding Affinity at GABAA/α3, Table 3
[13] = Binding Affinity at GABAA/α5, Table 3
[14] = Binding Affinity at GABAA/α1, Table 3
[15] = Binding Affinity at GABAA/α2, Table 3
[16] = dose 35.5 (HZ-166), 18 (JY-XHE-053), 1 (XLI-JY-DMH) mg/kg, TPE 2 hr

NCC1(CC(=O)O)CCCCC1 [gabapentin, reference compound]
dose at which sedative effects were observed [1]: 30 mg/kg
doses with significant reduction in locomotor activity [1]: ≥ 30 mg/kg
reversal of mechanical hypersensitivity ([2]; i.p., CCI model): dose-dependent reversal
maximum antihyperalgesic effect (efficacy) compared with HZ166 ([2]; reached only with sedative doses): higher
interfered with rotarod performance [3]: Neither

Cn1ncnc1COc1nn2c(-c3cc(F)ccc3F)nnc2cc1C(C)(C)C [L-838,417]
antihyperalgesic activity in a rat neuropathic pain model (neuropathic pain): good antihyperalgesic activity
analgesic effect after repeated administration (tolerance) (neuropathic pain): did not diminish

CCOC(=O)c1ncn2c1CN=C(c1ccccc1)c1cc(I)ccc1-2 [HZ 120, Ethyl 8-iodo-6-phenyl-4H-benzo[f]imidazo[1,5-a][1,4]diazepine-3-carboxylate]
Ki [4, 12]: 0.0785 µM
Ki [5]: 0.0322 µM
Ki [6, 13]: 0.0206 µM
Ki [7, 14]: > 5 µM
Ki [8, 15]: 0.035 µM

CN1CC[C@]23c4c5ccc(O)c4O[C@H]2[C@@H](O)C=C[C@H]3[C@H]1C5 [morphine]
analgesic effect after repeated administration (tolerance) (neuropathic pain): complete tolerance

C#Cc1ccc2c(c1)C(c1ccccc1)=NCc1c(-c3nc(CC)no3)ncn1-2 [PS-I-26]
Ki [4, 12]: 0.26 µM
Ki [5]: > 5 µM
Ki [6, 13]: 0.394 µM
Ki [7, 14]: 0.933 µM
Ki [8, 15]: 0.366 µM

C#Cc1ccc2c(c1)C(c1ccccc1Cl)=NCc1nnc(C)n1-2 [XLI-JY-DMH, 8-Acetyleno-5-(2′-chlorophenyl)-1-methyl-4H-s-triazolo-[4,3-a]-1,4-benzodiazepine]
Ki ([4]; Table 3, read-out: Binding Affinity at GABAA/α3): 0.0019 µM
Ki ([5]; Table 3, read-out: Binding Affinity at GABAA/α6): > 5 µM
Ki ([6]; Table 3, read-out: Binding Affinity at GABAA/α5): 0.0044 µM
Ki ([7]; Table 3, read-out: Binding Affinity at GABAA/α1): 0.0033 µM
Ki ([8]; Table 3, read-out: Binding Affinity at GABAA/α2): 0.00058 µM
analgesic effects in the chronic constriction injury model of neuropathic pain ([2]; mouse, in vivo): analgesic effects
protection at the acute phase of chemically induced pain ([9]; formalin test, acute phase): insignificant
Change (% of Control) ± SEM, T22 Formalin Pain, Acute ([9]; mouse, i.p., acute phase, dose 16 (HZ-166), 10 (JY-XHE-053), 1 (XLI-JY-DMH) mg/kg): 87.6 % of Control
Change (% of Control) ± SEM, T22 Formalin Pain, inflammatory ([9]; mouse, i.p., inflammatory phase, dose 16 (HZ-166), 10 (JY-XHE-053), 1 (XLI-JY-DMH) mg/kg): 111.9 % of Control
protection against neuropathic pain caused by sciatic ligation ([10]; T23 sciatic ligation): insignificant
Change (% of Control) ± SEM, T23 Sciatic Ligation [10, 16]: 136 % of Control
Significance, T23 Sciatic Ligation [10, 16]: no

CN1C(=O)CN=C(c2ccccc2)c2cc(Cl)ccc21 [Diazepam, diazepam]
level of pain response ([9]; mouse formalin test and model of sciatic nerve ligation): strongly reduced
anxiolytic effect (conflict model) (rhesus monkeys): anxiolytic
potentiation of GABA induced currents ([11]; wild-type mice, mean±SEM, n=11): 150.1±7.54%
potentiation of GABA induced currents ([11]; α1 mutant mice): 165±22.3%
potentiation of GABA induced currents ([11]; α2 mutant mice): 106.9±3.6%
potentiation of GABA induced currents ([11]; α3 mutant mice): 102.5±6.6%
potentiation of GABA induced currents ([11]; α5 mutant mice): 126±13.0%
